The text below walks through data of patent publication US20090047269A1, “METABOLOMIC CANCER TARGETS” (The Regents of the University of Michigan, priority 2007, published 2009).

The structures appear in SMILES notation.

Holding throughout (format): cell-based
The subject of one test is EGFR. Description: Immunoblot analysis of EGFR phosphorylation and total EGFR. The note with it: for total EGFR levels upon treatment: prostate epithelial cells. In general terms: In western blotting, separated proteins are transferred to a membrane and probed.
For test [1], the system named is immortalized benign RWPE prostate cells. The test can be described thus: Modified Boyden chamber matrigel invasion assay, RWPE cells. The note with it: for induction of invasion upon exogenous addition / increased invasion upon sarcosine addition compared to control: benign prostate epithelial cells; for increased invasion upon sarcosine addition compared to control: alanine as control. On the procedure: To investigate the biological role of sarcosine elevation in prostate cancer, prostate cancer cell lines VCaP, DU145, 22RV1 and LNCaP and their benign epithelial counterparts, primary benign prostate epithelial cells PrEC and immortalized benign RWPE prostate cells were used.
To determine if sarcosine plays a role in this process, it was added directly to non-invasive benign prostate epithelial cells. Alanine (an isomer of sarcosine) was used as a control for these experiments. […] The present invention is not limited to a particular mechanism. Indeed, an understanding of the mechanism is not necessary to practice the present invention.
To understand the role of sarcosine in prostate cancer progression, levels of the metabolite was measured in a panel of prostate-derived cell lines. […] The knock down studies were carried out using specific siRNA and the extent of target inhibition was assessed using Q-PCR. The in vitro Boyden chamber assay was used to qualify the modulation in the invasiveness of the knock down cells.

The test system of a further test is src. The test can be described thus: Immunoblot analysis of src phosphorylation. The note with it: prostate epithelial cells (PrEC), compared to alanine-treated controls. From the text:
(§1) Also total EGFR levels were elevated upon treatment with alanine or sarcosine. […] This observation was further strengthened using both antibody-mediated inhibition of EGFRactivity and siRNA-mediated knock-down of receptor levels.

A further test relates to p38MAPK. The test can be described thus: Immunoblot analysis of p38MAPK phosphorylation. The note with it: sarcosine-treated PrEC samples.
Excerpt: as §1

[2] abbreviates: RWPE cells, control non-target siRNA-transfected.

In the case of `C[C@H](N)C(=O)O` [alanine, reference compound], the “total EGFR levels upon treatment” value in the test with EGFR is “elevated”.

Turning to `NCC(=O)O` [glycine], the “invasion upon amino acid addition, mean±SEM” value in test [1] (RWPE cells with GNMT knockdown) is 0.20±0.03; in test [1] (setting [2]) it was 0.46±0.04. Further, in test [1], the “induction of invasion upon exogenous addition” value was “induced invasion in these cells, although to a lesser degree than sarcosine”.

In the case of `CNCC(=O)O` [sarcosine], the “increased invasion upon sarcosine addition compared to control” value amounted to 1.64 fold in test [1] (25 μM) and 2.57 fold in test [1] (50 μM). For the same compound, the “invasion upon amino acid addition, mean±SEM” value turned out to be 0.64±0.07 in test [1] (RWPE cells with GNMT knockdown) and 0.65±0.05 in test [1] (setting [2]). In addition, the “induction of invasion upon exogenous addition” value in test [1] is “imparted an invasive phenotype”. Besides, the “total EGFR levels upon treatment” value with EGFR is reported as “elevated”. In the test with EGFR (prostate epithelial cells (PrEC), compared to alanine-treated controls), the “EGFR phosphorylation upon treatment” value is “time-dependent increase”. Moreover, the “src phosphorylation upon treatment” value in the test with src is reported as “time-dependent increase”. Also, the “p38MAPK phosphorylation upon treatment” value in the test on p38MAPK is “phosphorylation of p38MAPK”.
